Calls of active or inactive are those of the source.
What was measured:
[1] = target: Paired box protein Pax-8 (Homo sapiens, UniProt Q06710); assay: inhibitors of PAX8-driven TPO luciferase reporter, dose response, RMG-I cells, cherry-pick (AID 687027); format: functional, cell-based;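 note: luciferase reporter driven by Pax8 target thyroperoxidase promoter measured by SteadyGlo luminescence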
[2] = NIH:OVCAR-3 ovarian cancer cell cytotoxicity, dose response, PAX8 inhibitor project, plate reader, dry powder samples (AID 743044); format: functional, cell-based
[3] = cytotoxicity in OVCAR8 ovarian cancer cells, dose response, PAX8 project, cell-based, plate reader, dry powder samples (AID 743197); format: functional; details: OVCAR-8
[4] = target: Eukaryotic translation initiation factor 4E (Mus musculus, UniProt P63073); assay: eIF4E–eIF4G protein interaction inhibitors, dose response, biochemical, TR-FRET (AID 855); format: functional;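 note: potency for disrupting eIF4E binding to eIF4GI seen as loss of FRET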
[5] = target: T1, Calpain-2 catalytic subunit (Sus scrofa, UniProt P43367); assay: pig calpain II inhibitor potency, dose response, biochemical, fluorogenic peptide substrate (AID 1420); format: functional
T1 sequence (P43367 whole entry): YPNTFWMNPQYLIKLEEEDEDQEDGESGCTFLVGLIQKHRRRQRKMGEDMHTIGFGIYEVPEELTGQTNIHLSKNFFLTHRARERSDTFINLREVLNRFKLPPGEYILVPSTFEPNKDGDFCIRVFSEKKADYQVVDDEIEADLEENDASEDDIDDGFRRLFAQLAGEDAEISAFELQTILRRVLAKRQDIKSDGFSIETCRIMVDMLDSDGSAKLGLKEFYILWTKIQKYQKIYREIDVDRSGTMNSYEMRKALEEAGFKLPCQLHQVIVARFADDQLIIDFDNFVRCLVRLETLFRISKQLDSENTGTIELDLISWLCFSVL

[6] = A cytotoxicity screen of small molecule inhibitors of the PhoP region in Salmonella typhi identified in the primary screen. [Related pubchem assays: 1850, 1864, 1985 ]; format: functional
[7] = target: NAD-dependent protein deacylase sirtuin-5, mitochondrial (Homo sapiens, UniProt Q9NXA8); assay: SIRT5 desuccinylase inhibitors, dose response, biochemical, fluorescence imaging, cherry-pick, set 5 (AID 720591);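 note: desuccinylation of succinyl peptide AMC substrate read as fluorescence after trypsin release; potency of inhibitors that lower fluorescence and may act on trypsin instead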
[8] = target: T2, Galanin receptor type 3 (Homo sapiens, UniProt O60755); assay: Fluorescence-based cell-based primary high throughput dose response assay to identify antagonists of the Galanin Receptor 3 (GalR3).; format: functional
T2 sequence (O60755 whole entry): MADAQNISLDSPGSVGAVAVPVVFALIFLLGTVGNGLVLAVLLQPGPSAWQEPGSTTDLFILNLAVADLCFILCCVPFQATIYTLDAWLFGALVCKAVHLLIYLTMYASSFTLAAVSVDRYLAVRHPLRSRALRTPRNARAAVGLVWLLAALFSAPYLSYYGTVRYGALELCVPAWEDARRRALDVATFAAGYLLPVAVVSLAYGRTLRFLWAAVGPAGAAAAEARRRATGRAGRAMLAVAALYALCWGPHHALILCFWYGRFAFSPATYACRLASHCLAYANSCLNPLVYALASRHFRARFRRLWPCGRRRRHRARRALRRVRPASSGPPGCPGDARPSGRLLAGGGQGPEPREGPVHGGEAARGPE

[9] = cells; format: functional, cell-based; details: HEK-CNG
[10] = target: T3, Leucine aminopeptidase (Plasmodium falciparum 3D7, UniProt Q8IL11); assay: P. falciparum M17LAP inhibitors, primary screen, biochemical, fluorogenic H-Leu-NHMec substrate, 1536-well (AID 1619); format: functional
T3 sequence (Q8IL11 whole entry): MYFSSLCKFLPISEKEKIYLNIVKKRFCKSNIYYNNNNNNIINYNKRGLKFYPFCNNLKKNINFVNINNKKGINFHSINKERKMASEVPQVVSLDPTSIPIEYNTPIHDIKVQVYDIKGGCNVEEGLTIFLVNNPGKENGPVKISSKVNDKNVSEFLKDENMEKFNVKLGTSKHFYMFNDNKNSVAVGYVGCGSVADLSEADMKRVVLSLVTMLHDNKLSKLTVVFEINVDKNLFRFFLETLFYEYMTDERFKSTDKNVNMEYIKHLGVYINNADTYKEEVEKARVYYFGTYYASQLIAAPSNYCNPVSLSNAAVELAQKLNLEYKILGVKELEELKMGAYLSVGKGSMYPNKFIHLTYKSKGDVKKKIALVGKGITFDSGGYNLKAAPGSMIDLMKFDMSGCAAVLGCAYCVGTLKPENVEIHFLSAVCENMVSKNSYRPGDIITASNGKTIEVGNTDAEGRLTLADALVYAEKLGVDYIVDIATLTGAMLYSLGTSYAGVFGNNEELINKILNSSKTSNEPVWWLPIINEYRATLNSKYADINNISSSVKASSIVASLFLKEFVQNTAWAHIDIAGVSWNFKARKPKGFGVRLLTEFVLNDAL

[11] = target: Major prion protein (Homo sapiens, UniProt P04156); format: functional, cell-based
[12] = cells
[13] = inhibitors of HIV Env-driven cell fusion, dose response, cherry-pick (AID 652057); format: functional, cell-based
[14] = CEM21 lymphoblast cell cytotoxicity, dose response, cytotoxicity control for viral fusion inhibitor project, CellTiter-Glo luminescence, cherry-picked (AID 652042); format: functional, cell-based;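 note: potency for signal decrease meaning cytotoxicity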
[15] = ZM109 Env clade C HIV-1 fusion inhibitors, dose response, HeLa effector, CEM target cells, luciferase, cherry-pick (AID 652058); format: functional, cell-based
[16] = off-target signal loss in HeLa-CEM21 co-culture – HeLa F-luc CTL cells, cherry-picked, counter-screen for HIV-1 Env fusion inhibitor project, dose response (AID 652040); format: functional, cell-based;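 note: potency for signal decrease marking cytotoxic or nonspecific inhibition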
[17] = cytotoxicity in HEK-293T cells, dose response, cytotoxicity control for TCR NF-kB inhibitor project, luminescence, T-cell screen hits (AID 489026); format: functional, cell-based;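 note: cells exposed to compound about 14 hours before the viability readout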
[18] = HEp-2 cell cytotoxicity, dose response, cytotoxicity control for RSV inhibitor project, HTS (AID 2410); format: functional; details: human respiratory syncytial virus
[19] = tested on: Vero; assay: cells; format: functional, cell-based; details: Chlorocebus sabaeus
[20] = cells; remark: listed apart in the source
[21] = NIH-3T3 fibroblast cytotoxicity, dose response, cytotoxicity control, cell-based, fluorescence, Alamar Blue, secondary assay (AID 2327); format: functional;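 note: NIH-3T3 mouse fibroblasts cultured with fluconazole at 8 µg/mL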
[22] = cells; format: functional, cell-based
[23] = C. albicans growth with fluconazole, confirmation, fluorescence, retest (AID 2467); format: functional, cell-based
[24] = cells; format: functional, cell-based; remark: listed apart in the source
[25] = tested on: HEK293; assay: inhibitors of LMP1-driven NF-kB reporter, dose response, cell-based, HEK293, luciferase, cherry-pick (AID 588343); format: functional; details: Homo sapiens
[26] = tested on: INS1; assay: beta cell apoptosis inhibitors, cytokine rescue, dose response, luminescence, retest (AID 449756); format: functional, cell-based; details: Rattus norvegicus;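 note: cell death triggered by IL-1 beta plus TNF-alpha plus IFN-gamma mixture; protective hits raise ATP signal compared with cytokine alone wells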
[27] = target: T4, Aminopeptidase N (Plasmodium falciparum FcB1/Columbia, UniProt O96935); assay: P. falciparum M1AAP inhibitors, biochemical, fluorogenic H-Leu-NHMec substrate, 1536-well (AID 1445); design: species or system Plasmodium falciparum 3D7, 3D7
T4 sequence (O96935 whole entry): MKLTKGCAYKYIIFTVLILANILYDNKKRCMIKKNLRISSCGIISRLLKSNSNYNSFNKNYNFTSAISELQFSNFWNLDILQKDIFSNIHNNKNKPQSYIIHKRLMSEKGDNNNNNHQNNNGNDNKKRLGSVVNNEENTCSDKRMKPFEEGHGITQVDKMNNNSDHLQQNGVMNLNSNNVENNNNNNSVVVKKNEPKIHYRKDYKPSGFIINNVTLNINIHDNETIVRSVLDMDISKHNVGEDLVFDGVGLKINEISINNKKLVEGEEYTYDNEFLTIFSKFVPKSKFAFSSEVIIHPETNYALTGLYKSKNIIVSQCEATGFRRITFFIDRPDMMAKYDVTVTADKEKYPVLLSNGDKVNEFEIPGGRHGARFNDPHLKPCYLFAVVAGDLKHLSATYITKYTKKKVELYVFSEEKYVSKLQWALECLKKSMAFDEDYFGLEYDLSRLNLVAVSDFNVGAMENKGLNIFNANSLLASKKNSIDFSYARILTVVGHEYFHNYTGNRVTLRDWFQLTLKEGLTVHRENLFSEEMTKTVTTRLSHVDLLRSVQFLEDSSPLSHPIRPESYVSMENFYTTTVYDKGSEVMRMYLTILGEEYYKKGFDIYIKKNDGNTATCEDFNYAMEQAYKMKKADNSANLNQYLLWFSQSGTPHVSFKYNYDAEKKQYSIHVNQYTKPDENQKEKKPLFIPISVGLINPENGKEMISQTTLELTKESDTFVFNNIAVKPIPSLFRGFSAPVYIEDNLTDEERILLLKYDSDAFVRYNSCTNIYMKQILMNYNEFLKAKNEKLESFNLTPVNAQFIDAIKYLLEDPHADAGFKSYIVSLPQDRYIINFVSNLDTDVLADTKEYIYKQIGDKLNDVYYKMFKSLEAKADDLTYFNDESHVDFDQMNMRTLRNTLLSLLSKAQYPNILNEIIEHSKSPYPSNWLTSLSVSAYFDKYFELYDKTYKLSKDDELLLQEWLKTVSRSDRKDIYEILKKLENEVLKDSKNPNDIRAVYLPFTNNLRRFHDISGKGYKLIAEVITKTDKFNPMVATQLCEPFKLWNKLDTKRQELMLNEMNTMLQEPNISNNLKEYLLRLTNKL

## C[C@H](CO)N1C[C@H](C)[C@H](CN(C)S(=O)(=O)c2ccc(Cl)cc2)OCCCC[C@H](C)Oc2ccc(NS(=O)(=O)c3ccc(Cl)cc3)cc2C1=O
[1]
  AC50: 5.86 µM (active)
[2]
  AC50: 34.3 µM (active)
[3]
  AC50: 58.9 µM (active)

## Cc1c(Cl)cccc1NC(=O)CCC(=O)NNC(=O)c1ccccc1Cl
[4]
  IC50: > 64 µM (inactive)

## Cc1ccc(C(C(=O)NC2CCCC2)N(C(=O)Cc2cccs2)c2ccc(C)c(C)c2)o1 (stereo not drawn)
[5]
  IC50: 10.9 µM (not active)

## CC1=C(c2ccccc2)SC2=NCCN21
[6]
  EC50: > 50 µM (active)
[7]
  AC50: > 30 µM (inactive)

## CCOC(=O)Cc1csc(NC(=O)c2cc(=O)c3ccccc3o2)n1
[8]
  IC50: 3.82 µM (active)
[9]
  EC50: > 29.9 µM (inactive)

## Cc1cc(Br)c(NC(=O)COC(=O)CC2CC3CCC2C3)c(Br)c1 (stereo not drawn)
[7]
  AC50: 21.8 µM (active)

## Cc1cccc(C)c1NC(=O)CSc1ncnc2nc[nH]c12
[10]
  IC50: 39.9 µM (active)

## COC(=O)[C@@]12C[C@@H](CC(=O)NCc3ccccc3)C(=O)N(Cc3ccccc3)C1=CCC(C)(C)C2
[7]
  AC50: 19.1 µM (active)

## CC1CC(=O)N(CC(=O)Nc2ccc3c(c2)OCO3)c2ccccc2S1 (stereo not drawn)
[10]
  IC50: 21.9 µM (active)

## C=CCNC(=S)N/N=C/c1ccc(C(C)(C)C)cc1
[5]
  IC50: 10.9 µM (not active)

## COc1cc(-c2[nH]ncc2CN2CCN(Cc3cccs3)CC2)cc(OC)c1OC
[4]
  IC50: 50 µM (inactive)

## CCc1cc2cccc(C)c2nc1SCC(=O)NNC(=O)c1ccco1
[11]
  IC50: 3.73 µM (active)
[12]
  IC50: > 138 µM (inactive)

## CC(=O)c1cccc(NC(=O)c2nc(-c3ccccc3)oc2C)c1
[4]
  IC50: 50 µM (inactive)

## COc1ccccc1N1CCN(C(=O)CSc2nc(-c3ccccc3)cc(=O)[nH]2)CC1
[10]
  IC50: 16 µM (active)

## O=C(CSc1nnc[nH]1)Nc1ccc2c(c1)OCCO2
[10]
  IC50: 64.9 µM (active)

## CC(C)N(C(=O)c1sc2cc([N+](=O)[O-])ccc2c1Cl)C(C)C
[5]
  IC50: 1.98 µM (not active)

## Cc1ccc(S(=O)(=O)N(C)C)cc1NC(=O)C(C)N(C)CCOc1ccc(Cl)cc1 (stereo not drawn)
[13]
  AC50: 18.7 µM (active)
[14]
  AC50: 57 µM (active)
[15]
  AC50: 1.85 µM (active)
[16]
  AC50: 39.3 µM (active)

## CCn1ncc(C2=NOC(C(=O)NCc3ccc(Cl)cc3)C2)c1C (stereo not drawn)
[17]
  IC50: > 80 µM (inactive)

## Cc1ccc(C(C)C)c(OCc2nc(-c3nonc3N)no2)c1
[4]
  IC50: > 64 µM (inactive)

## CCOC(=O)Cn1c(-c2nonc2NC(=O)c2ccccc2F)nc2ccccc21
[18]
  CC50: > 6.25 µM (active)
[19]
  IC50: 0.98 µM (active)
[20]
  IC50: 4.57 µM (active)

## Cc1cc(C)nc(NS(=O)(=O)c2ccc(NC(=O)CSc3nc(O)c(C#N)c(-c4ccccc4)n3)cc2)n1
[11]
  IC50: 6.28 µM (active)
[12]
  IC50: > 138 µM (inactive)

## COc1cccc(/C=N/NC(=O)c2[nH]nc3c2CCc2ccccc2-3)c1O
[21]
  EC50: 9.81 µM (active)
[22]
  EC50: 9.85 µM (active)
[23]
  EC50: 1.49 µM (active)
[24]
  EC50: > 350 µM (not active)
[17]
  IC50: 54 µM (inactive)
[25]
  AC50: 5.71 µM (active)
[26]
  AC50: 0.796 µM (active)

## CCCN(c1ccc(OCC)cc1)S(=O)(=O)c1ccc2c(c1)NC(=O)CO2
[11]
  IC50: 13.1 µM (inactive)
[12]
  IC50: > 138 µM (inactive)

## Nc1nc(O)c2ncn([C@@H]3O[C@H](CNCc4ccc(OCCCN5CCOCC5)cc4)[C@@H](O)[C@H]3O)c2n1
[7]
  AC50: > 30 µM (inactive)

## O=C(O)Cn1cc(/C=C2/SC(=O)N(CC(=O)N3CCCCCC3)C2=O)c2ccccc21
[27]
  IC50: 82.3 µM (active)

## C[C@@H]1CCCCO[C@@H](CN(C)S(=O)(=O)c2ccc(F)cc2)[C@H](C)CN([C@H](C)CO)C(=O)c2cc(NS(=O)(=O)c3ccc(Cl)cc3)ccc2O1
[1]
  AC50: 5.05 µM (active)
[2]
  AC50: 48.9 µM (active)
[3]
  AC50: > 70 µM (inactive)

## CCOC(=O)CSc1ccc2ccccc2n1
[11]
  IC50: 9.54 µM (active)
[12]
  IC50: > 138 µM (inactive)
